Measured values taken from ChEMBL document CHEMBL5518176, “Identification of novel aminopyrimidine derivatives for the treatment of mutant NSCLC” (Eur J Med Chem, 2024).
Calls of active or inactive are those of the source. No cut-off for these calls is given here.

Assays:
A549 = test: Antiproliferative activity against human A549 cells assessed as inhibition of cell growth incubated for 72 hrs by MTT assay; format: functional, cell-based; details: A549, 72 h
BaF3 [1] = test: Antiproliferative activity against mouse BaF3 cells harboring EGFR L858R/T790M/C797S triple mutant assessed as inhibition of cell growth incubated for 72 hrs by CellTiter-Glo luminescent assay; format: functional, cell-based; details: BaF3, 72 h
NCI-H1975 [2] = test: Antiproliferative activity against human NCI-H1975 cells harboring EGFR L858R/T790M double mutant assessed as inhibition of cell growth incubated for 72 hrs by MTT assay; format: functional, cell-based; details: NCI-H1975, 72 h
BaF3 [3] = test: Antiproliferative activity against mouse BaF3 cells harboring EGFR Del19/T790M/C797S triple mutant assessed as inhibition of cell growth incubated for 72 hrs by CellTiter-Glo luminescent assay; format: functional, cell-based; details: BaF3, 72 h
NCI-H1975 [4] = test: Induction of apoptosis in human NCI-H1975 cells harboring EGFR L858R/T790M/C797S triple mutant assessed as late apoptotic cells at 0.8 uM incubated for 48 hrs by Annexin V-FITC/PI staining based flow cytometric analysis (reference value: 0.89 %); format: functional
NCI-H1975 [5] = test: Induction of apoptosis in human NCI-H1975 cells harboring EGFR L858R/T790M/C797S triple mutant assessed as viable cells at 1.5 uM incubated for 48 hrs by Annexin V-FITC/PI staining based flow cytometric analysis (reference value: 98.3 %); format: functional; details: read-out: Activity
NCI-H1975 [6] = test: Induction of apoptosis in human NCI-H1975 cells harboring EGFR L858R/T790M/C797S triple mutant assessed as late apoptotic cells at 0.4 uM incubated for 48 hrs by Annexin V-FITC/PI staining based flow cytometric analysis (reference value: 0.89 %); format: functional
NCI-H1975 [7] = test: Induction of apoptosis in human NCI-H1975 cells harboring EGFR L858R/T790M/C797S triple mutant assessed as viable cells at 0.4 uM incubated for 48 hrs by Annexin V-FITC/PI staining based flow cytometric analysis (reference value: 98.3 %); format: functional; details: read-out: Activity
NCI-H1975 [8] = test: Induction of apoptosis in human NCI-H1975 cells harboring EGFR L858R/T790M/C797S triple mutant assessed as early apoptotic cells at 0.8 uM incubated for 48 hrs by Annexin V-FITC/PI staining based flow cytometric analysis (reference value: 0.39 %); format: functional
NCI-H1975 [9] = test: Induction of apoptosis in human NCI-H1975 cells harboring EGFR L858R/T790M/C797S triple mutant assessed as necrotic cells at 0.8 uM incubated for 48 hrs by Annexin V-FITC/PI staining based flow cytometric analysis (reference value: 0.42 %); format: functional
[10] = Antiproliferative activity against human BEAS-2B cells assessed as inhibition of cell growth; format: toxicity, cell-based
NCI-H1975 [11] = test: Antiproliferative activity against human NCI-H1975 cells harboring EGFR L858R/T790M/C797S triple mutant assessed as inhibition of cell growth incubated for 72 hrs by CellTiter-Glo luminescent assay; format: functional, cell-based; details: NCI-H1975, 72 h
NCI-H1975 [12] = test: Induction of apoptosis in human NCI-H1975 cells harboring EGFR L858R/T790M/C797S triple mutant assessed as late apoptotic cells at 1.5 uM incubated for 48 hrs by Annexin V-FITC/PI staining based flow cytometric analysis (reference value: 0.89 %); format: functional
BaF3 [13] = test: Antiproliferative activity against mouse BaF3 cells harboring wildtype EGFR assessed as inhibition of cell growth incubated for 72 hrs by CellTiter-Glo luminescent assay; format: functional, cell-based; details: BaF3, 72 h
NCI-H1975 [14] = test: Induction of cell cycle arrest in human NCI-H1975 cells harboring EGFR L858R/T790M/C797S triple mutant at 0.4 to 1.5 uM incubated for 48 hrs by flow cytometric analysis; format: functional, cell-based; details: dose 0.4-1.5 µM
NCI-H1975 [15] = test: Induction of apoptosis in human NCI-H1975 cells harboring EGFR L858R/T790M/C797S triple mutant assessed as viable cells at 0.8 uM incubated for 48 hrs by Annexin V-FITC/PI staining based flow cytometric analysis (reference value: 98.3 %); format: functional; details: read-out: Activity
NCI-H1975 [16] = test: Induction of apoptosis in human NCI-H1975 cells harboring EGFR L858R/T790M/C797S triple mutant assessed as early apoptotic cells at 0.4 uM incubated for 48 hrs by Annexin V-FITC/PI staining based flow cytometric analysis (reference value: 0.39 %); format: functional
NCI-H1975 [17] = test: Induction of apoptosis in human NCI-H1975 cells harboring EGFR L858R/T790M/C797S triple mutant assessed as necrotic cells at 0.4 uM incubated for 48 hrs by Annexin V-FITC/PI staining based flow cytometric analysis (reference value: 0.42 %); format: functional
NCI-H1975 [18] = test: Induction of apoptosis in human NCI-H1975 cells harboring EGFR L858R/T790M/C797S triple mutant assessed as early apoptotic cells at 1.5 uM incubated for 48 hrs by Annexin V-FITC/PI staining based flow cytometric analysis (reference value: 0.39 %); format: functional
NCI-H1975 [19] = test: Induction of apoptosis in human NCI-H1975 cells harboring EGFR L858R/T790M/C797S triple mutant assessed as necrotic cells at 1.5 uM incubated for 48 hrs by Annexin V-FITC/PI staining based flow cytometric analysis (reference value: 0.42 %); format: functional
NCI-H1975 [20] = test: Antiproliferative activity against human NCI-H1975 cells harboring EGFR L858R/T790M/C797S triple mutant assessed as inhibition of cell growth incubated for 72 hrs in presence of osimertinib by CellTiter-Glo luminescent assay; format: functional, cell-based; details: NCI-H1975, 72 h

Row | SMILES | IC50 (A549) | IC50 (BaF3 [1]) | IC50 (NCI-H1975 [2]) | IC50 (BaF3 [3]) | IC50 (NCI-H1975 [11]) | also measured
1 | CCN(CC)c1ccc(-c2ccc3c(c2)CN(C(C(=O)Nc2ccc(Nc4ccnc(N)n4)cc2)c2ccccc2)C3=O)cc1 (racemic) | 15700 nM | 1190 nM | 11600 nM | 1190 nM |  | 
2 | Nc1nccc(Nc2ccc(NC(=O)C(c3ccccc3)N3Cc4cc(-c5ccc(N6CCOCC6)cc5)ccc4C3=O)cc2)n1 (racemic) | > 20000 nM | 1960 nM | > 20000 nM | 1960 nM |  | 
3 | CN1CCN(c2ccc(-c3ccc4c(c3)CN([C@@H](C(=O)Nc3ccc(Nc5ccnc(N)n5)cc3)c3ccccc3)C4=O)cc2)CC1 | 5140 nM | 420 nM | 2950 nM | 410 nM | 820 nM | Activity (NCI-H1975 [4]): 11.16%; viability at 1.5 µM (NCI-H1975 [5]): 85.3%; Activity (NCI-H1975 [6]): 1.64%; viability at 0.4 µM (NCI-H1975 [7]): 97.3%; Activity (NCI-H1975 [8]): 1.45%; Activity (NCI-H1975 [9]): 0.69%; IC50 [10]: 5120 nM; Activity (NCI-H1975 [12]): 12.15%; IC50 (BaF3 [13]): 410 nM; Activity (NCI-H1975 [14]): inactive; viability at 0.8 µM (NCI-H1975 [15]): 86.7%; Activity (NCI-H1975 [16]): 0.59%; Activity (NCI-H1975 [17]): 0.51%; Activity (NCI-H1975 [18]): 1.83%; Activity (NCI-H1975 [19]): 0.73%
4 | CN1CCN(c2ccc(-c3ccc4c(c3)CN([C@H](C(=O)Nc3ccc(Nc5ccnc(N)n5)cc3)c3ccccc3)C4=O)cc2)CC1 | 7180 nM | 720 nM | 2820 nM | 750 nM | 1640 nM | IC50 (BaF3 [13]): 450 nM
5 | Nc1nccc(Nc2ccc(NC(=O)C(c3ccccc3)N3Cc4cc(-c5ccc(N6CCCCC6)cc5)ccc4C3=O)cc2)n1 (racemic) | > 20000 nM | 2080 nM | > 20000 nM | 2580 nM |  | 
6 | O=C(Nc1ccc(Nc2ccncn2)cc1)C(c1ccccc1)N1Cc2cc(-c3ccc(N4CCNCC4)cc3)ccc2C1=O (configuration not stated) | 5130 nM | 2550 nM | 9950 nM | 2450 nM |  | 
7 | Nc1nccc(Nc2ccc(NC(=O)C(c3ccccc3)N3Cc4ccc(-c5ccc(N6CCNCC6)cc5)cc4C3=O)cc2)n1 (configuration not stated) | 4020 nM | 1280 nM | 2930 nM | 1210 nM | 1640 nM | 
8 | Nc1nccc(Nc2ccc(NC(=O)C(c3ccccc3)N3Cc4ccccc4C3=O)cc2)n1 (configuration not stated) | > 20000 nM | > 10000 nM | > 20000 nM | > 10000 nM | > 10000 nM | 
9 | Nc1nccc(Nc2ccc(NC(=O)C(c3ccccc3)N3Cc4cc(-c5ccc(N6CCNCC6)cc5)ccc4C3=O)c(Cl)c2)n1 (configuration not stated) | 3960 nM | 1240 nM | 4400 nM | 860 nM | 2320 nM | 
10 | Nc1nccc(Nc2ccc(NC(=O)C(c3ccccc3)N3Cc4cc(-c5ccc(N6CCNCC6)cc5)ccc4C3=O)cc2F)n1 (configuration not stated) | 4520 nM | 1420 nM | 7800 nM | 1720 nM | 1530 nM | 
11 | Nc1cc(Nc2ccc(NC(=O)C(c3ccccc3)N3Cc4ccccc4C3=O)cc2)ncn1 (configuration not stated) | > 20000 nM | > 10000 nM | > 20000 nM | > 10000 nM | > 10000 nM | 
12 | Nc1nccc(Nc2ccc(NC(=O)C(c3ccccc3)N3Cc4cc(-c5ccc(N6CCNCC6)cc5)ccc4C3=O)c(F)c2)n1 (configuration not stated) | 1780 nM | 1430 nM | 2440 nM | 720 nM | 1430 nM | 
13 | Nc1nccc(Nc2cccc(NC(=O)C(c3ccccc3)N3Cc4cc(-c5ccc(N6CCNCC6)cc5)ccc4C3=O)c2)n1 (configuration not stated) | 2210 nM | 1460 nM | 3200 nM | 890 nM | 4160 nM | 
14 | Nc1nccc(Nc2ccc(NC(=O)C(c3ccccc3)N3Cc4cc(-c5ccc(N6CCNCC6)cc5)ccc4C3=O)cc2Cl)n1 (configuration not stated) | 4200 nM | 1440 nM | 3320 nM | 860 nM | 1550 nM | 
15 | Nc1cc(Nc2ccc(NC(=O)C(c3ccccc3)N3Cc4cc(-c5ccc(N6CCNCC6)cc5)ccc4C3=O)cc2)ncn1 (configuration not stated) | > 20000 nM | 3960 nM | > 20000 nM | 1520 nM | > 10000 nM | 
16 | Cc1nccc(Nc2ccc(NC(=O)C(c3ccccc3)N3Cc4cc(-c5ccc(N6CCNCC6)cc5)ccc4C3=O)cc2)n1 (configuration not stated) | 3970 nM | 930 nM | 4750 nM |  | 2690 nM | 
17 | O=C(Nc1nccs1)[C@@H](c1cc(F)ccc1O)N1Cc2ccc(-c3ccc(N4CCNCC4)cc3)cc2C1=O |  |  |  |  | 3660 nM | IC50 (NCI-H1975 [20]): 1250 nM
18 | C=CC(=O)Nc1cc(Nc2nccc(-c3cn(C)c4ccccc34)n2)c(OC)cc1N(C)CCN(C)C [OSIMERTINIB] | […] | 1120 nM | […] | 750 nM | […] | IC50 (BaF3 [13]): 9 nM
19 | COc1nccc(Nc2ccc(NC(=O)C(c3ccccc3)N3Cc4cc(-c5ccc(N6CCNCC6)cc5)ccc4C3=O)cc2)n1 (configuration not stated) | 4880 nM | 480 nM | 3600 nM |  | 2650 nM | 
20 | CN1CCN(c2ccc(-c3ccc4c(c3)CN(C(C(=O)Nc3ccc(Nc5ccnc(N)n5)cc3)c3ccccc3)C4=O)cc2)CC1 (racemic) | 12200 nM | 690 nM |  | 620 nM | 1650 nM | IC50 (BaF3 [13]): 1500 nM
21 | Nc1nccc(Nc2ccc(NC(=O)C(c3ccccc3)N3Cc4cc(-c5ccc(N6CCNCC6)cc5)ccc4C3=O)cc2)n1 (configuration not stated) | 530 nM | 970 nM | 3200 nM | 690 nM | 1490 nM | 
22 | O=C(Nc1ccc(Nc2ccncc2)cc1)C(c1ccccc1)N1Cc2cc(-c3ccc(N4CCNCC4)cc3)ccc2C1=O (configuration not stated) | 5200 nM | 1040 nM | 3820 nM |  | 2700 nM | 
